We go through 17 molecules from patent publication US20230365585A1, “BENZODIAZEPINE DERIVATIVES USEFUL IN TREATING A RESPIRATORY SYNCYTIAL VIRUS INFECTION” (priority 2020, published 2023).

The nature of one series: Cell cytotoxicity CC50. The series is classed as cell-based. Conditions: human; mean of at least two experiments. From the text: (§1) Plates were scanned and analysed using the Immunospot S6 Macro analyser, which is equipped with BioSpot analysis software for counting immunostained plaques (virospots). Plaque counts were used to calculate % infection relative to the mean of the plaque count in the virus control wells for RSV. […] Plaque EC50 and cell toxicity CC50 values are a mean of at least two experiments and figures are rounded to whole units.

The next series has as its system RSV A2. Description: RSV plaque reduction assay. Format: cell-based, RSV (RSV A2 ECACC, 0709161v). Conditions: human respiratory syncytial virus, HepG2, 48 h, Hep-G2 cells, RSV A2, 2 days; mean of at least two experiments. How it is done:
Compounds were subjected to RSV plaque reduction assays according to the following protocol.
Hep-G2 cells (ECACC, 85011430) were passaged in flasks and seeded in 24-well plates in DMEM containing antibiotics and supplemented with 10% FBS. During inoculation and subsequent incubation, cells were cultured in DMEM containing 2% FBS. 100 plaque forming unit/well of RSV (RSV A2 ECACC, 0709161v) was mixed with eight serial dilutions of compound. Subsequently, 100 µL of the virus/compound mixtures was added to confluent Hep-G2 cell monolayers. The cells and virus/compound mixtures were incubated at 37° C. in a humidified 5% CO2 incubator for 2 h prior to removal of the inoculum and addition of 1 mL of overlay (DMEM containing 2% FBS and 0.8% CMC) containing compound dilutions. The cells and were incubated at 37° C. in a humidified 5% CO2 incubator for 2 days.
Cells were washed with PBS before adding 75%/25% v/v EtOH/MeOH, for 3 min. Fix ative was removed and plates were washed with PBS. A pre-titrated amount of the primary antibody was added in 200 µL PBS/2% milk powder, and plates incubated for 90 min at 37° C. The plates were washed 3 times with PBS/0.05% Tween20 before addition of rabbit anti-goat horse radish peroxidase in 200 µL PBS/2% milk powder, and incubated for 1 h at 37° C. Following three wash steps with PBS/0.05% Tween20, 200 µL ready-to-use TrueBlue was added and plates were incubated at rt for 10-15 min before washing with water. After removal of water, plates were air-dried in the dark.
as §1
(In general: Plaques are areas of infected cells; plaque reduction assays count them against a control.)

In “Cell cytotoxicity CC50”, `CCNc1ccc(-c2nn3c(c2C(=O)N[C@H]2N=C(c4ccccc4)c4ccccc4NC2=O)OC(C)CCC3)c(F)n1` (single isomer, unassigned) [Example 10-1, (5R*)-2-[6-(ethylamino)-2-fluoropyridin-3-yl]-5-methyl-N-[(3S)-2-oxo-5-phenyl-1,3-dihydro-1,4-benzodiazepin-3-yl]-5,6,7,8-tetrahydropyrazolo[5,1-b][1,3]oxazepine-3-carboxamide] yielded a CC50 of more than 25 µM. Besides, the midpoint of the response with RSV A2, the EC50, lay at 0.026 µM.
In turn, `CCNc1ccc(-c2nn3c(c2C(=O)N[C@H]2N=C(c4ccccc4)c4cccc(F)c4NC2=O)O[C@H](C)CCC3)c(F)n1` (single isomer, unassigned) [Example 11-1] displayed a CC50 in the series “Cell cytotoxicity CC50” of more than 25 µM. Moreover, the EC50 in the series on RSV A2 was 0.022 µM.
In turn, `CCNc1ccc(-c2nn3c(c2C(=O)N[C@H]2N=C(c4ccccc4)c4cccc(F)c4NC2=O)OC(C)CCC3)c(F)n1` (single isomer, unassigned) [Example 11-2, (5S*)-2-[6-(ethylamino)-2-fluoropyridin-3-yl]-N-[(3S)-9-fluoro-2-oxo-5-phenyl-1,3-dihydro-1,4-benzodiazepin-3-yl]-5-methyl-5,6,7,8-tetrahydropyrazolo[5,1-b][1,3]oxazepine-3-carboxamide] came in with a CC50 in the series “Cell cytotoxicity CC50” of more than 25 µM. Besides, the 50% effective concentration (EC50) in the series with RSV A2 is 0.009 µM.
For `CC(C)Nc1ccc(-c2nn3c(c2C(=O)N[C@H]2N=C(c4ccccc4)c4ccccc4NC2=O)OC(C)CCC3)c(F)n1` (single isomer, unassigned) [Example 12-1, (5R*)-2-[2-fluoro-6-(propan-2-ylamino)pyridin-3-yl]-5-methyl-N-[(3S)-2-oxo-5-phenyl-1,3-dihydro-1,4-benzodiazepin-3-yl]-5,6,7,8-tetrahydropyrazolo[5,1-b][1,3]oxazepine-3-carboxamide], in that order: more than 25 µM and 0.035 µM.
For `CC(C)Nc1ccc(-c2nn3c(c2C(=O)N[C@H]2N=C(c4ccccc4)c4cccc(F)c4NC2=O)OC(C)CCC3)c(F)n1` (single isomer, unassigned) [Example 13-1, (5R*)-N-[(3S)-9-fluoro-2-oxo-5-phenyl-1,3-dihydro-1,4-benzodiazepin-3-yl]-2-[2-fluoro-6-(propan-2-ylamino)pyridin-3-yl]-5-methyl-5,6,7,8-tetrahydropyrazolo[5,1-b][1,3]oxazepine-3-carboxamide], in that order: more than 25 µM and 0.026 µM.
The molecule `CC1CCCOc2c(C(=O)NC3N=C(c4ccccc4)c4ccccc4NC3=O)c(-c3ccccc3F)nn21` (single isomer, unassigned) [Example 14-1, (8R*)-2-(2-Fluorophenyl)-8-methyl-N-(2-oxo-5-phenyl-1,3-dihydro-1,4-benzodiazepin-3-yl)-5,6,7,8-tetrahydropyrazolo[5,1-b][1,3]oxazepine-3-carboxamide] displayed a CC50 in “Cell cytotoxicity CC50” of more than 25 µM. Also, in the series with RSV A2, the EC50 is 0.061 µM.
For `CC1CCCOc2c(C(=O)NC3N=C(c4ccccc4)c4cccc(F)c4NC3=O)c(-c3ccccc3F)nn21` (single isomer, unassigned) [Example 15-1, (8R*)-N-(9-fluoro-2-oxo-5-phenyl-1,3-dihydro-1,4-benzodiazepin-3-yl)-2-(2-fluorophenyl)-8-methyl-5,6,7,8-tetrahydropyrazolo[5,1-b][1,3]oxazepine-3-carboxamide], in that order: more than 25 µM and 0.047 µM.
As to `CC1CCCn2nc(-c3ccc(F)cc3F)c(C(=O)N[C@H]3N=C(c4ccccc4)c4ccccc4NC3=O)c2O1` (single isomer, unassigned) [Example 16-1, (5R*)-2-(2,4-difluorophenyl)-5-methyl-N-[(3S)-2-oxo-5-phenyl-1,3-dihydro-1,4-benzodiazepin-3-yl]-5,6,7,8-tetrahydropyrazolo[5,1-b][1,3]oxazepine-3-carboxamide], the CC50 in “Cell cytotoxicity CC50” was more than 25 µM. The molecule further gave an EC50 in the series with RSV A2 of 0.028 µM.
Take `CC1CCCn2nc(-c3ccc(F)cc3F)c(C(=O)N[C@H]3N=C(c4ccccc4)c4cccc(F)c4NC3=O)c2O1` (single isomer, unassigned) [Example 17-1, (5R*)-2-(2,4-difluorophenyl)-N-[(3 S)-9-fluoro-2-oxo-5-phenyl-1,3-dihydro-1,4-benzodiazepin-3-yl]-5-methyl-5,6,7,8-tetrahydropyrazolo[5,1-b][1,3]oxazepine-3-carboxamide]: the CC50 in the series “Cell cytotoxicity CC50” is more than 25 µM. Also, the EC50 with RSV A2 came out at 0.019 µM.
In “Cell cytotoxicity CC50”, `O=C(N[C@H]1N=C(c2ccccc2)c2cccc(F)c2NC1=O)c1c(-c2ccccc2F)nn2c1O[C@@H]1CC[C@H]2C1` (single isomer, unassigned) [Example 19-1, (1S*,8R*)-N-[(3 S)-9-fluoro-2-oxo-5-phenyl-2,3-dihydro-1H-1,4-benzodiazepin-3-yl]-4-(2-fluorophenyl)-7-oxa-2,3-diazatricyclo[6.2.1.0^2,6]undeca-3,5-diene-5-carboxamide] displayed a half-maximal cytotoxic concentration (CC50) of more than 25 µM. Also, the midpoint of the response in the series with RSV A2, the EC50, lay at 0.049 µM.
In “Cell cytotoxicity CC50”, `O=C(N[C@H]1N=C(c2ccccc2)c2cccc(F)c2NC1=O)c1c(-c2ccccc2F)nn2c1O[C@H]1CC[C@@H]2C1` (single isomer, unassigned) [Example 19-2, (1R*,8S*)-N-[(3 S)-9-fluoro-2-oxo-5-phenyl-2,3-dihydro-1H-1,4-benzodiazepin-3-yl]-4-(2-fluorophenyl)-7-oxa-2,3-diazatricyclo[6.2.1.0^2,6]undeca-3,5-diene-5-carboxamide] returned a CC50 of more than 25 µM. The EC50 in the series with RSV A2 was found to be 0.053 µM.
For `CCC1CCCn2nc(-c3ccccc3F)c(C(=O)N[C@H]3N=C(c4ccccc4)c4ccccc4NC3=O)c2O1` (single isomer, unassigned) [Example 24-1, (5R*)-5-ethyl-2-(2-fluorophenyl)-N-[(3S)-2-oxo-5-phenyl-2,3-dihydro-1H-1,4-benzodiazepin-3-yl]-5H,6H,7H,8H-pyrazolo[3,2-b][1,3]oxazepine-3-carboxamide], in that order: more than 25 µM and 0.111 µM.
In turn, `CCC1CCCn2nc(-c3ccccc3F)c(C(=O)N[C@H]3N=C(c4ccccc4)c4cccc(F)c4NC3=O)c2O1` (single isomer, unassigned) [Example 25-1, (5R*)-5-ethyl-2-(2-fluorophenyl)-N-[(3S)-9-fluoro-2-oxo-5-phenyl-1,3-dihydro-1,4-benzodiazepin-3-yl]-5,6,7,8-tetrahydropyrazolo[5,1-b][1,3]oxazepine-3-carboxamide] displayed a CC50 in “Cell cytotoxicity CC50” of more than 25 µM. This molecule gave an EC50 in the series with RSV A2 of 0.093 µM.
Regarding `CCC1CCCn2nc(-c3ccc(C)nc3)c(C(=O)N[C@H]3N=C(c4ccccc4)c4ccccc4NC3=O)c2O1` (single isomer, unassigned) [Example 26-1, (5R*)-5-ethyl-2-(6-methylpyridin-3-yl)-N-[(3 S)-2-oxo-5-phenyl-2,3-dihydro-1H-1,4-benzodiazepin-3-yl]-5H,6H,7H,8H-pyrazolo[3,2-b][1,3]oxazepine-3-carboxamide], in the series “Cell cytotoxicity CC50”, the CC50 was more than 25 µM. This molecule came in with an EC50 in the series with RSV A2 of 0.314 µM.
The matching figures for `CCC1CCCn2nc(-c3ccc(C)nc3)c(C(=O)N[C@H]3N=C(c4ccccc4)c4cccc(F)c4NC3=O)c2O1` (single isomer, unassigned) [Example 27-1, (5R*)-5-ethyl-N-[(3S)-9-fluoro-2-oxo-5-phenyl-2,3-dihydro-1H-1,4-benzodiazepin-3-yl]-2-(6-methylpyridin-3-yl)-5H,6H,7H,8H-pyrazolo[3,2-b][1,3]oxazepine-3-carboxamide]: more than 25 µM and 0.295 µM.
For `CCc1ccc(-c2nn3c(c2C(=O)N[C@H]2N=C(c4ccccc4)c4cccc(F)c4NC2=O)O[C@@H]2CC[C@H]3C2)cn1` (single isomer, unassigned) [Example 30-1, (1S*,8R*)-4-(6-ethylpyridin-3-yl)-N-[(3S)-9-fluoro-2-oxo-5-phenyl-2,3-dihydro-1H-1,4-benzodiazepin-3-yl]-7-oxa-2,3-diazatricyclo[6.2.1.02,6]undeca-3,5-diene-5-carboxamide], in that order: more than 25 µM and 0.061 µM.
For `CCc1ccc(-c2nn3c(c2C(=O)N[C@H]2N=C(c4ccccc4)c4cccc(F)c4NC2=O)O[C@H]2CC[C@@H]3C2)cn1` (single isomer, unassigned) [Example 30-2, (1R*,8S*)-4-(6-ethylpyridin-3-yl)-N-[(3S)-9-fluoro-2-oxo-5-phenyl-2,3-dihydro-1H-1,4-benzodiazepin-3-yl]-7-oxa-2,3-diazatricyclo[6.2.1.02,6]undeca-3,5-diene-5-carboxamide], in that order: more than 25 µM and 0.063 µM.

A word on the CC50: it is the concentration giving 50% cytotoxicity. A higher CC50 goes with better tolerance by the cells. What is called EC50 is the concentration that produces a half-maximal response. The low end stands for greater potency, the high end for weaker potency.
